According to PMC11830721 (Frontiers in Pharmacology, 2025):

Experiments:
[1] = biological target: T1, FLT3-ITD (Homo sapiens, UniProt P36888, ITD); test: Microscale thermophoresis (MST) binding affinity; conditions: 50 mM Tris, 230 mM NaCl, pH 7.0, labeled protein 50 nM
T1 sequence (P36888 27-993): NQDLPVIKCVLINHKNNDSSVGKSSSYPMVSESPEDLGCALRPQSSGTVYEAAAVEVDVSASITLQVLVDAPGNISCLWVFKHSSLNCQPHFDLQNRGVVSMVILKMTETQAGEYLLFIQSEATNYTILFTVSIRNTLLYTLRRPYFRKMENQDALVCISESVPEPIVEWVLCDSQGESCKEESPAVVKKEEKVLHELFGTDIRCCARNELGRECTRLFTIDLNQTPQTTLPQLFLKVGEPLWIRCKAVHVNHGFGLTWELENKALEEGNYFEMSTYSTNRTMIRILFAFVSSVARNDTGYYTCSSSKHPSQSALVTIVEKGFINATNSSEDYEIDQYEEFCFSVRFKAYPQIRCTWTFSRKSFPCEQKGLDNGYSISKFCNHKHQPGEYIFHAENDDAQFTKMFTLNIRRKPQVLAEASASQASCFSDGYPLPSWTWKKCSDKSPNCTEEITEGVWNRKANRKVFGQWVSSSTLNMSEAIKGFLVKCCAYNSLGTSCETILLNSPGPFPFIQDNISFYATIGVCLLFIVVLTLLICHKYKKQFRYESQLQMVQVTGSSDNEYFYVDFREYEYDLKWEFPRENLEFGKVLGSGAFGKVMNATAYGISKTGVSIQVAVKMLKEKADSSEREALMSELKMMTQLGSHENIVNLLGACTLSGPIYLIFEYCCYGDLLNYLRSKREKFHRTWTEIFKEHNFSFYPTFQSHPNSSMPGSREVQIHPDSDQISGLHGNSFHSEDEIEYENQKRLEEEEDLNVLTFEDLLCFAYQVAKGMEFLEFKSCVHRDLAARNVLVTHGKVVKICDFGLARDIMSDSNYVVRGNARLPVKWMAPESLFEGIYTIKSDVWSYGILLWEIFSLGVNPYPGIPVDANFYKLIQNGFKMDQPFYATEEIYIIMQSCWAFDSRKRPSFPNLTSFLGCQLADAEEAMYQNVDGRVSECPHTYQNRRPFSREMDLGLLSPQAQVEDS
Protocol: The protein was labeled with a fluorescence tag utilizing a Lys Labeling Kit (NanoTemper), with a final concentration of 50 nM being achieved. Adhering to the manufacturer’s guidelines, the compounds were titrated from an initial concentration of 12.5 μM with a 1:1 dilution ratio. Next, each sample was centrifuged at 15,000 rpm for 5 min, followed by loading into standard glass capillaries for MST analysis.

[2] = system: NB4 cells; test: MTT assay, NB4 (FLT3 wild-type); type: cell-based; conditions: 2–64 μM
Source text: (§1) The human AML cell line MV4-11, which bears exclusive FLT3-ITD mutation genes, was purchased from the American Type Culture Collection (ATCC, Manassas, VA, United States), and the AML cell line NB4, a FLT3-wildtype cell line, was obtained from the China Center for Type Culture Collection (CCTCC, Wuhan, China). In addition, the normal hematopoietic cell line was COLO 829BL from ATCC. The cells were maintained in RPMI-1640 medium supplemented with 10% FBS, and 1% penicillin and streptomycin. The cells were cultured in an incubator at 37°C with 5% CO2. […] The high-performance liquid chromatography (HPLC) spectra data for each compound are provided in the (Supplementary Figures S1–S6). The FLT3-ITD mutant protein was purchased from Abcam (Cambridge, United Kingdom).
(§2) The effects of the test compounds on MV4-11, NB4, and COLO 829BL cell lines were quantitatively evaluated according to the methods previously reported ([Zhou et al., 2022]).
(§3) Subsequently, to further validate the specificity of FLIN-4 for cells expressing FLT3-ITD, we conducted MTT assays to assess the specificity and cytotoxicity of FLIN-4 within the concentration range of 2–64 μM on NB4 cells (harboring FLT3 wild-type) and COLO 829BL cells (representing normal hematopoietic cells). […]

[3] = system: FLT3 signaling pathway (p-FLT3, p-STAT5, p-ERK) in MV4-11 cells; test: Western blot of FLT3 signaling pathway in MV4-11 cells; type: cell-based, human; conditions: 4 h, MV4-11, Western blot quantification
Protocol: The MV4-11 cell line was subjected to a 4 h exposure to varying concentrations of the FLIN-4 compound. Subsequent to this treatment, cellular lysis was conducted using RIPA lysis buffer (Sigma-Aldrich, United States) to isolate total cellular proteins. Subsequently, protein concentrations were precisely quantified using the BCA protein assay kit (Beyotime, Nantong, China). Western blot analysis was carried out in accordance with established methodologies ([Zhou et al., 2022]). The primary antibodies utilized in this study included: rabbit anti-FLT3 (21049−1-AP, Proteintech Group), rabbit anti-phospho-FLT3 (ab171975, Abcam), rabbit anti-Stat5 (#94205, CST), rabbit anti-Phospho-Stat5 (#4322, CST), rabbit anti-ERK (16443−1-AP, Proteintech Group), rabbit anti-phospho-ERK (28733−1-AP, Proteintech Group), and a rabbit anti-GAPDH antibody (10494−1-AP, Proteintech Group) served as an endogenous loading control.
To elucidate the impact of FLIN-4 on the FLT3 signaling cascade, we conducted a Western blot analysis in MV4-11 cells to evaluate the relative expression levels of pivotal phosphorylated proteins.

[4] = system: COLO 829BL cells; test: MTT assay, COLO 829BL (normal hematopoietic); type: cell-based; conditions: 2–64 μM
Source text: as §1, §2, §3

[5] = biological target: 60 non-target kinases; test: SelectScreen kinase selectivity profiling, whole panel; type: biochemical; conditions: all 60 kinases
Source text: Moreover, we extended the kinase selectivity profiling of FLIN-4 to evaluate its inhibitory activity against 60 non-target kinases.

## CCc1nc(C(N)=O)c(Nc2ccc(N3CCC(Nc4ccccc4)CC3)c(OC)c2)nc1NC1CCOC(C(O)CO)C1 (stereo not shown) [FLIN-4]
[1]
  Kd: 0.95 ± 0.06 nM
[2]
  Survival rate of NB4 cells: did not induce any significant changes in the survival rates
[3]; 3 nM
  p-ERK/ERK expression level: significant diminution
  p-FLT3/FLT3 expression level: significant diminution
  p-STAT5/STAT5 expression level: significant diminution
[3]; 30 nM
  p-ERK/ERK expression level: exacerbated decrease
  p-FLT3/FLT3 expression level: exacerbated decrease
  p-STAT5/STAT5 expression level: exacerbated decrease
[4]
  Survival rate of COLO 829BL cells: did not induce any significant changes in the survival rates
[5]
  IC50: > 10 µM
